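Each compound was tested at five concentrations against cells in 96-well plates for 48 hours. GI50: concentration for 50% inhibition of growth. TGI marks complete inhibition of growth.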
Experiments:
Assay in all cases: NCI tumour cell line growth inhibition, 48 h
[1] = test system: MDA-MB-231 breast
[2] = test system: RPMI-8226 leukemia
[3] = test system: NCI-H522 lung
[4] = test system: NCI-H226 lung
[5] = test system: MCF7 breast
[6] = test system: TK-10 renal
[7] = test system: HCT-15 colon
[8] = test system: OVCAR-5 ovarian
[9] = test system: SW-620 colon
[10] = test system: KM12 colon
[11] = test system: SF-295 CNS
[12] = test system: T-47D breast
[13] = test system: DU-145 prostate
[14] = test system: HOP-62 NSCLC
[15] = test system: SK-MEL-2 melanoma
[16] = test system: CAKI-1 renal
[17] = test system: UO-31 renal
[18] = test system: COLO 205 colon
[19] = test system: HOP-92 NSCLC
[20] = test system: SF-539 CNS
[21] = test system: MDA-MB-435
[22] = test system: OVCAR-3 ovarian
[23] = test system: NCI/ADR-RES ovarian
[24] = test system: UACC-257 melanoma
[25] = test system: EKVX NSCLC
[26] = test system: RXF 393 renal
[27] = test system: NCI-H460 lung
[28] = test system: MALME-3M melanoma
[29] = test system: BT-549 breast
[30] = test system: HS 578T breast
[31] = test system: A498 renal
[32] = test system: SNB-75 CNS
[33] = test system: U251 CNS
[34] = test system: NCI-H23 lung
[35] = test system: A549 NSCLC
[36] = test system: ACHN renal
[37] = test system: OVCAR-8 ovarian
[38] = test system: MOLT-4 leukemia
[39] = test system: SR leukemia
[40] = test system: HCT-116 colon
[41] = test system: SF-268 CNS
[42] = test system: SK-OV-3 ovarian
[43] = test system: M14 melanoma
[44] = test system: HT29 colon
[45] = test system: SK-MEL-5 melanoma
[46] = test system: SK-MEL-28 melanoma
[47] = test system: PC-3 prostate
[48] = test system: LOX IMVI melanoma
[49] = test system: 786-0 renal
[50] = test system: OVCAR-4 ovarian
[51] = test system: HL-60(TB) leukemia
[52] = test system: CCRF-CEM leukemia
[53] = test system: SNB-19 CNS
[54] = test system: HCC-2998 colon
[55] = test system: SN12C renal
[56] = test system: UACC-62 melanoma
[57] = test system: IGROV1 ovarian

COc1cc2c(=O)n(CCN)c3c4cc5c(cc4ccc3c2cc1OC)OCO5
GI50 [1]: 1230 nM | TGI [1]: 2660 nM | GI50 [2]: 356 nM | TGI [2]: 2370 nM | GI50 [3]: 167 nM | TGI [3]: 1830 nM | GI50 [4]: 1430 nM | TGI [4]: 3590 nM | GI50 [5]: 175 nM | TGI [5]: 1530 nM | GI50 [6]: 1620 nM | TGI [6]: 3280 nM | GI50 [7]: 651 nM | TGI [7]: 2190 nM | GI50 [8]: 1160 nM | TGI [8]: 2590 nM | GI50 [9]: 230 nM | TGI [9]: 2070 nM | GI50 [10]: 913 nM | TGI [10]: 2470 nM | GI50 [11]: 306 nM | TGI [11]: 4080 nM | GI50 [12]: 508 nM | TGI [12]: 16800 nM | GI50 [13]: 488 nM | TGI [13]: 1830 nM | GI50 [14]: 444 nM | TGI [14]: 2270 nM | GI50 [15]: 3690 nM | TGI [15]: 16500 nM | GI50 [16]: 382 nM | TGI [16]: 5940 nM | GI50 [17]: 605 nM | TGI [17]: 2100 nM | GI50 [18]: 352 nM | TGI [18]: 2110 nM | GI50 [19]: 3310 nM | TGI [19]: 18000 nM | GI50 [20]: 893 nM | TGI [20]: 2250 nM | GI50 [21]: 894 nM | TGI [21]: 2290 nM | GI50 [22]: 919 nM | TGI [22]: 2260 nM | GI50 [23]: 1260 nM | TGI [23]: 3600 nM | GI50 [24]: 1920 nM | TGI [24]: 13300 nM | GI50 [25]: 1470 nM | TGI [25]: 3510 nM | GI50 [26]: 1020 nM | TGI [26]: 2560 nM | GI50 [27]: 236 nM | TGI [27]: 1250 nM | GI50 [28]: 692 nM | TGI [28]: 2200 nM | GI50 [29]: 1060 nM | TGI [29]: 2700 nM | GI50 [30]: 2800 nM | TGI [30]: 11700 nM | GI50 [31]: 1240 nM | TGI [31]: 2640 nM | GI50 [32]: 892 nM | TGI [32]: 3350 nM | GI50 [33]: 287 nM | TGI [33]: 1750 nM | GI50 [34]: 683 nM | TGI [34]: 2510 nM | GI50 [35]: 626 nM | TGI [35]: 2360 nM | GI50 [36]: 363 nM | TGI [36]: 1520 nM | GI50 [37]: 988 nM | TGI [37]: 3910 nM | GI50 [38]: 67.1 nM | TGI [38]: 863 nM | GI50 [39]: 90.7 nM | TGI [39]: 1030 nM | GI50 [40]: 285 nM | TGI [40]: 1310 nM | GI50 [41]: 423 nM | TGI [41]: 2140 nM | GI50 [42]: 1240 nM | TGI [42]: 12000 nM | GI50 [43]: 425 nM | TGI [43]: 1890 nM | GI50 [44]: 222 nM | TGI [44]: 1650 nM | GI50 [45]: 834 nM | TGI [45]: 2150 nM | GI50 [46]: 2090 nM | TGI [46]: 6170 nM | GI50 [47]: 591 nM | TGI [47]: 2270 nM | GI50 [48]: 362 nM | TGI [48]: 1780 nM | GI50 [49]: 464 nM | TGI [49]: 1970 nM | GI50 [50]: 902 nM | TGI [50]: 2550 nM | GI50 [51]: 1240 nM | TGI [51]: 3530 nM | GI50 [52]: 182 nM | GI50 [53]: 414 nM | TGI [53]: 1970 nM | GI50 [54]: 1080 nM | TGI [54]: 2470 nM | GI50 [55]: 723 nM | TGI [55]: 2320 nM | GI50 [56]: 332 nM | TGI [56]: 1960 nM | GI50 [57]: 467 nM | TGI [57]: 2070 nM

— PubChem BioAssay (NCI)
